Results reported in US6472348B1, “Pyridone derivatives and herbicides” (Kumiai Chemical Industry Co., Ltd., priority 1996, dated 2002).

Key:
slender amaranth (Am) [1] = test: Test Example 3: herbicidal effects by upland field foliage treatment; type: in vivo; parameters: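 grade of growth control; 5 = at least 90%; 4 = 70 to 90%; 3 = 50 to 70%; 2 = 30 to 50%; 1 = 10 to 30%; 0 = under 10%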
How it was run: (§1)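 Greenhouse test, upland conditions: seeds sown in sand pots of 120 cm^2 area and overlaid with soil; 2 weeks growth; leaves treated; herbicidal injury graded on day 14 after treatment by fixed standards.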

rice flatsedge (Ci) [2] = test: as above; type: in vivo; parameters: scale not given here
How it was run: as §1

barnyardgrass (Ec) [3] = test: as above; type: in vivo; parameters: scale not given here
How it was run: as §1

Diaitaria ciliaris (Di) = test: as above; type: in vivo; parameters: scale not given here
How it was run: as §1

pale smartweed (Po) [4] = test: as above; type: in vivo; parameters: scale not given here
How it was run: as §1

[5] = test system: common lambsquarters (Ch); test: as above; type: in vivo; parameters: scale not given here
How it was run: as §1

cotton (Go) = test: Test Example 4: crop plant selectivity by upland field soil treatment (cotton), phytotoxicity; type: in vivo; parameters: scale not given here; conditions: dose 6.3 g ai/10 a, evaluated 21st day after application
How it was run: (§2)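 Sand-filled pots, seeds sown then soil-covered; soil application; greenhouse culture; visual scoring of weed control and cotton injury at day 21 post-application.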

slender amaranth (Am) [6] = test: Test Example 5: crop plant selectivity by upland field soil treatment (wheat), herbicidal effects; type: in vivo; parameters: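 grade of growth control; 5 = at least 90%; 4 = 70 to 90%; 3 = 50 to 70%; 2 = 30 to 50%; 1 = 10 to 30%; 0 = under 10%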; conditions: dose 6.3 g ai/10a, 21st day after application
How it was run: (§3)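 Upland soil-treatment selectivity test: crop and weed seeds are sown together in sand-filled pots, soil-covered, then treated and grown under glass until rating at 21 days.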

green foxtail (Se) [7] = test: as above; type: in vivo; parameters: scale not given here; conditions: dose 6.3 g ai/10a, 21st day after application
How it was run: as §3

China jute (Ab) [8] = test: as above; type: in vivo; parameters: scale not given here; conditions: dose 6.3 g ai/10a, 21st day after application
How it was run: as §3

pale smartweed (Po) [9] = test: as above; type: in vivo; parameters: scale not given here; conditions: dose 6.3 g ai/10a, 21st day after application
How it was run: as §3

[10] = test system: common lambsquarters (Ch); test: as above; type: in vivo; parameters: scale not given here; conditions: dose 6.3 g ai/10a, 21st day after application
How it was run: as §3

bulrush (Sc) = test: Test Example 1: herbicidal effects by paddy field soil treatment; type: in vivo; conditions: 100 g of the active ingredient per 10 ares, 21st day after the application, index 0-5 of Table 47;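 also: grade of growth control; 5 = at least 90%; 4 = 70 to 90%; 3 = 50 to 70%; 2 = 30 to 50%; 1 = 10 to 30%; 0 = under 10%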
How it was run: (§4)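 Herbicidal effect was scored against a graded standard 21 days after treatment. Seeds were sown in puddled, leveled paddy soil flooded to 3 cm depth, and the active ingredient was applied at 100 g per 10 ares before greenhouse culture.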

barnyardgrass (Ec) [11] = test: as above; type: in vivo; conditions: 100 g of the active ingredient per 10 ares, 21st day after the application, index 0-5 of Table 47
How it was run: as §4

monochoria (Mo) = test: as above; type: in vivo; conditions: 100 g of the active ingredient per 10 ares, 21st day after the application, index 0-5 of Table 47;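 also: grade of growth control; 5 = at least 90%; 4 = 70 to 90%; 3 = 50 to 70%; 2 = 30 to 50%; 1 = 10 to 30%; 0 = under 10%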
How it was run: as §4

slender amaranth (Am) [12] = test: Test Example 4: crop plant selectivity by upland field soil treatment (cotton), herbicidal effects; type: in vivo; parameters: scale not given here; conditions: dose 6.3 g ai/10 a, evaluated 21st day after application
How it was run: as §2

green foxtail (Se) [13] = test: as above; type: in vivo; parameters: scale not given here; conditions: dose 6.3 g ai/10 a, evaluated 21st day after application
How it was run: as §2

China jute (Ab) [14] = test: as above; type: in vivo; parameters: scale not given here; conditions: dose 6.3 g ai/10 a, evaluated 21st day after application
How it was run: as §2

pale smartweed (Po) [15] = test: as above; type: in vivo; parameters: scale not given here; conditions: dose 6.3 g ai/10 a, evaluated 21st day after application
How it was run: as §2

[16] = test system: common lambsquarters (Ch); test: as above; type: in vivo; parameters: scale not given here; conditions: dose 6.3 g ai/10 a, evaluated 21st day after application
How it was run: as §2

wheat (Tr) = test: Test Example 5: crop plant selectivity by upland field soil treatment (wheat), phytotoxicity; type: in vivo; parameters: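 grade of crop injury; 5 = at least 90%; 4 = 70 to 90%; 3 = 50 to 70%; 2 = 30 to 50%; 1 = 10 to 30%; 0 = under 10%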; conditions: dose 6.3 g ai/10a, 21st day after application
How it was run: as §3

slender amaranth (Am) [17] = test: Test Example 2: herbicidal effects by upland field soil treatment; type: in vivo; conditions: 100 g of the active ingredient per 10 ares;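 also: grade of growth control; 5 = at least 90%; 4 = 70 to 90%; 3 = 50 to 70%; 2 = 30 to 50%; 1 = 10 to 30%; 0 = under 10%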
Text: (§5) (Test on Herbicidal Effects by Upland Field Soil Treatment)

Digitaria ciliaris (Di) = test: as above; type: in vivo; conditions: 100 g of the active ingredient per 10 ares;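 also: grade of growth control; 5 = at least 90%; 4 = 70 to 90%; 3 = 50 to 70%; 2 = 30 to 50%; 1 = 10 to 30%; 0 = under 10%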
Text: as §5

rice flatsedge (Ci) [18] = test: as above; type: in vivo; conditions: 100 g of the active ingredient per 10 ares
Text: as §5

barnyardgrass (Ec) [19] = test: as above; type: in vivo; conditions: 100 g of the active ingredient per 10 ares
Text: as §5

pale smartweed (Po) [20] = test: as above; type: in vivo; conditions: 100 g of the active ingredient per 10 ares
Text: as §5

[21] = test system: common lambsquarters (Ch); test: as above; type: in vivo; conditions: 100 g of the active ingredient per 10 ares
Text: as §5

soybean (Gl) = test: Test Example 6: crop plant selectivity by upland field soil treatment (soybean), phytotoxicity; type: in vivo; parameters: scale not given here; conditions: dose 6.3 g ai/10a, 21st day after application
How it was run: (§6)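 Soybean and weed seeds were sown in sand-filled pots and covered with soil, then given a pre-emergence soil application. Plants were grown on in a greenhouse, and herbicidal effect and crop phytotoxicity were scored against a set rating scale 21 days after application.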

slender amaranth (Am) [22] = test: Test Example 6: crop plant selectivity by upland field soil treatment (soybean), herbicidal effects; type: in vivo; parameters: scale not given here; conditions: dose 6.3 g ai/10a, 21st day after application
How it was run: as §6

green foxtail (Se) [23] = test: as above; type: in vivo; parameters: scale not given here; conditions: dose 6.3 g ai/10a, 21st day after application
How it was run: as §6

China jute (Ab) [24] = test: as above; type: in vivo; parameters: scale not given here; conditions: dose 6.3 g ai/10a, 21st day after application
How it was run: as §6

pale smartweed (Po) [25] = test: as above; type: in vivo; parameters: scale not given here; conditions: dose 6.3 g ai/10a, 21st day after application
How it was run: as §6

[26] = test system: common lambsquarters (Ch); test: as above; type: in vivo; parameters: scale not given here; conditions: dose 6.3 g ai/10a, 21st day after application
How it was run: as §6

slender amaranth (Am) [27] = test: Test Example 7: crop plant selectivity by upland field soil treatment (corn), herbicidal effects; type: in vivo; parameters: scale not given here; conditions: dose 6.3 g ai/10a, 21st day after application
How it was run: (§7)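 Greenhouse pot test in sand with soil cover over seeds of corn and weeds sown together; scored 21 d after treatment.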

green foxtail (Se) [28] = test: as above; type: in vivo; parameters: scale not given here; conditions: dose 6.3 g ai/10a, 21st day after application
How it was run: as §7

China jute (Ab) [29] = test: as above; type: in vivo; parameters: scale not given here; conditions: dose 6.3 g ai/10a, 21st day after application
How it was run: as §7

pale smartweed (Po) [30] = test: as above; type: in vivo; parameters: scale not given here; conditions: dose 6.3 g ai/10a, 21st day after application
How it was run: as §7

[31] = test system: common lambsquarters (Ch); test: as above; type: in vivo; parameters: scale not given here; conditions: dose 6.3 g ai/10a, 21st day after application
How it was run: as §7

corn (Ze) [32] = test: Test Example 7: crop plant selectivity by upland field soil treatment (corn), phytotoxicity; type: in vivo; parameters: scale not given here; conditions: dose 6.3 g ai/10a, 21st day after application
How it was run: as §7

slender amaranth (Am) [33] = test: Test Example 11: crop plant selectivity by upland field foliage treatment (corn), herbicidal effects; type: in vivo; parameters: scale not given here; conditions: upland field foliage treatment (corn test), dose 1.6 g ai/10a, 14th day after treatment
How it was run: (§8)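 Corn with pale smartweed, slender amaranth, common lambsquarters and China jute sown in sand-filled pots and grown 2 weeks in a greenhouse before foliage treatment. Herbicidal effect and crop phytotoxicity scored on day 14 after treatment against a rating standard.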

China jute (Ab) [34] = test: as above; type: in vivo; parameters: scale not given here; conditions: upland field foliage treatment (corn test), dose 1.6 g ai/10a, 14th day after treatment
How it was run: as §8

pale smartweed (Po) [35] = test: as above; type: in vivo; parameters: scale not given here; conditions: upland field foliage treatment (corn test), dose 1.6 g ai/10a, 14th day after treatment
How it was run: as §8

[36] = test system: common lambsquarters (Ch); test: as above; type: in vivo; parameters: scale not given here; conditions: upland field foliage treatment (corn test), dose 1.6 g ai/10a, 14th day after treatment
How it was run: as §8

corn (Ze) [37] = test: Test Example 11: crop plant selectivity by upland field foliage treatment (corn), phytotoxicity; conditions: upland field foliage treatment, dose 1.6 g ai/10a, 14th day after treatment
How it was run: as §8

[38] = 100 g of the active ingredient per 10 ares, evaluated on the 14th day after treatment
[39] = 21st day after the application, index 0-5 of Table 47
[40] = 100 g active ingredient per 10 ares, evaluated 14th day after treatment
[41] = evaluated on the 21st day after application

melting point | Compound | Phytotoxicity Go (cotton (Go)) | Herbicidal effects Am (slender amaranth (Am) [6]) | Herbicidal effects Se (green foxtail (Se) [7]) | Herbicidal effects Ab (China jute (Ab) [8]) | Herbicidal effects Po (pale smartweed (Po) [9]) | Herbicidal effects Ch [10] | Herbicidal effects Sc (bulrush (Sc)) | Herbicidal effects Ec (barnyardgrass (Ec) [11]) | Herbicidal effects Mo (monochoria (Mo)) | Herbicidal effects Am (slender amaranth (Am) [12]) | Herbicidal effects Se (green foxtail (Se) [13]) | Herbicidal effects Ab (China jute (Ab) [14]) | Herbicidal effects Po (pale smartweed (Po) [15]) | Herbicidal effects Ch [16] | Phytotoxicity Tr (wheat (Tr)) | Herbicidal effects Am (slender amaranth (Am) [17]; [41]) | Herbicidal effects Di (Digitaria ciliaris (Di); [41]) | Herbicidal effects Ci (rice flatsedge (Ci) [18]; [41]) | Herbicidal effects Ec (barnyardgrass (Ec) [19]; [41]) | other results
150 to 151 °C | CNS(=O)(=O)c1cc(-c2ccc(C(F)(F)F)n(C)c2=O)c(F)cc1Cl [Compound No. 1-71, 3-(4-chloro-2-fluoro-5-methylsulfamoylphenyl)-1-methyl-6-trifluoromethyl-2(1H)-pyridone] | 1 | 5 | 5 | 5 | 5 | 5 | 5 | 5 | 5 | 5 | 5 | 5 | 5 | 5 | 2 |  |  |  |  | Herbicidal effects Am (slender amaranth (Am) [1]; [38]): 5; Herbicidal effects Ci (rice flatsedge (Ci) [2]; [38]): 5; Herbicidal effects Ec (barnyardgrass (Ec) [3]; [38]): 5; Herbicidal effects Di (Diaitaria ciliaris (Di); [38]): 5; Herbicidal effects Po (pale smartweed (Po) [4]; [38]): 5; Herbicidal effects Ch [5, 38]: 5; Herbicidal effects Am (slender amaranth (Am) [17]; [39]): 5; Herbicidal effects Di (Digitaria ciliaris (Di); [39]): 5; Herbicidal effects Ci (rice flatsedge (Ci) [18]; [39]): 5; Herbicidal effects Ec (barnyardgrass (Ec) [19]; [39]): 5; Herbicidal effects Po (pale smartweed (Po) [20]; [39]): 5; Herbicidal effects Ch [21, 39]: 5
142 to 144 °C | Cn1c(C(F)(F)F)ccc(-c2c(F)cc(Cl)c3oc(CBr)cc23)c1=O [Compound No. 4-7, 3-(2-bromomethyl-7-chloro-5-fluorobenzofuran-4-yl)-1-methyl-6-trifluoromethyl-2-(1H)-pyridone] | 1 | 5 | 5 | 5 | 5 | 5 | 5 | 5 | 5 | 5 | 5 | 5 | 5 | 5 | 1 | 5 | 5 | 5 | 5 | Phytotoxicity Gl (soybean (Gl)): 1; Herbicidal effects Am (slender amaranth (Am) [1]; [40]): 5; Herbicidal effects Ci (rice flatsedge (Ci) [2]; [40]): 5; Herbicidal effects Ec (barnyardgrass (Ec) [3]; [40]): 5; Herbicidal effects Di (Diaitaria ciliaris (Di); [40]): 5; Herbicidal effects Po (pale smartweed (Po) [4]; [40]): 5; Herbicidal effects Ch [5, 40]: 5; Herbicidal effects Am (slender amaranth (Am) [22]): 5; Herbicidal effects Se (green foxtail (Se) [23]): 5; Herbicidal effects Ab (China jute (Ab) [24]): 5; Herbicidal effects Po (pale smartweed (Po) [25]): 5; Herbicidal effects Ch [26]: 5; Herbicidal effects Am (slender amaranth (Am) [27]): 5; Herbicidal effects Se (green foxtail (Se) [28]): 5; Herbicidal effects Ab (China jute (Ab) [29]): 5; Herbicidal effects Po (pale smartweed (Po) [30]): 5; Herbicidal effects Ch [31]: 5; Phytotoxicity Ze (corn (Ze) [32]): 2; Herbicidal effects Po (pale smartweed (Po) [20]; [41]): 5; Herbicidal effects Ch [21, 41]: 5
233 to 235 °C | Cn1c(C(F)(F)F)ccc(-c2c(F)cc(Cl)c3oc(C(=O)O)cc23)c1=O [Compound No. 4-26, 3-(2-carboxy-7-chloro-5-fluorobenzofuran-4-yl)-1-methyl-6-trifluoromethyl-2-(1H)-pyridone] |  |  |  |  |  |  | 5 | 5 | 5 |  |  |  |  |  |  | 5 | 5 | 5 | 5 | Herbicidal effects Am (slender amaranth (Am) [33]): 5; Herbicidal effects Ab (China jute (Ab) [34]): 5; Herbicidal effects Po (pale smartweed (Po) [35]): 5; Herbicidal effects Ch [36]: 5; Phytotoxicity Ze (corn (Ze) [37]): 1; Herbicidal effects Po (pale smartweed (Po) [20]; [41]): 5; Herbicidal effects Ch [21, 41]: 5
